We go through eight compounds from US9381164B2, “Silk nanospheres and microspheres and methods of making same” (TRUSTEES OF TUFTS COLLEGE, priority 2009, dated 2016).

Data set [1] in a line: Drug loading in silk spheres (supernatant absorbance at 555 nm). It is filed as physicochemical. The settings on record: drug/silk 1:100; spheres from 1.0% silk/4.0% PVA blend. The protocol: Tetramethylrhodamine conjugated bovine serum albumin (TMR-BSA, M.w.=66,000 Da), tetramethylrhodamine conjugated dextran (TMR-Dextran, M.w.=10,000 Da), and rhodamine B (RhB, M.w.=479 Da) were used as model drugs to study the drug loading in silk nano- and micro spheres. Stock solutions of drugs were prepared with a concentration of 5 mg/ml in PBS buffer, pH 7.4, and stored at −20° C. Certain amount of stock solution of drugs was added to silk fibroin solution, before the silk fibroin solution was prepared into silk nano- and micro spheres, to reach to a drug/silk ratio of 1:100 (weight ratio). After mixing, the drug loaded silk fibroin solution was used to blend with PVA solution following the steps described in the Example 2, without the sonication treatment. A 5 wt % of silk and PVA concentrations and a silk/PVA ratio of 1:4 were used in this example. At this concentration, the silk/PVA film with a silk/PVA ratio of 1/4 can generate silk spheres with narrower size distribution, perhaps because the blend film is easier to dissolve in water forming homogeneous sphere suspension.
To determine the amount of drug loading in silk spheres, the supernatants collected from the centrifugation steps were subjected to absorbance measurement at 555 nm. The amount of drug was calculated based on a standard curve obtained at the same condition. The amount of drug in silk spheres was calculated from the difference between the total amount used and the amount remained in the supernatants. For each drug loading, at least three samples were prepared in order to obtain a standard deviation. The pellets from the last step of centrifugation were suspended in 2 ml of PBS buffer, pH 7.4, and used for the following confocal microscopy and drug release studies in Example 6.

The nature of data set [2]: Cumulative drug release from silk spheres in PBS. It is filed as physicochemical. The note with it: for In vitro drug release: Microspheres, PVA blend film. How it is done:
Silk spheres loaded with model drugs as described in Example 5 were lyophilized. 10 mg of lyophilized silk spheres were suspended in 1 ml of PBS buffer, pH 7.4. The samples were incubated at room temperature under slow shaking condition. A cumulative drug release profile at each different time point (1, 4, 8.5, 24, 48, 120, 192, 342 hr) was determined by following the steps of (a) centrifuging the samples at 12,000 rpm for 10 min with a Sigma ISS-113 microcentrifuge (Sigma Chemical Co., St. Louis, Mo.); (b) carefully transferring the supernatants to empty tubes, subjecting the collected supernatants to the absorbance measurement at a wavelength of 555 nm, calculating the amount of model drug based on a standard curve, and comparing the data at the current time point with the original amounted drug loaded in the spheres; (c) suspending the precipitated pellets in 1 ml of PBS buffer; and (d) repeating the steps of (a)-(c) at each time point to obtain a cumulative drug release profile. For each model drug, at least three samples were prepared in order to obtain a standard deviation.

For data set [3] the following is noted: cited from earlier work.
Where [4] appears, read: Microspheres, Vibrational splitting of laminar jet.

Where a name gives a salt, the structure may show the parent alone. Read-outs that look alike come from different tables or passages of the source. Bounds are passed on as bounds.

Consider `CCN(CC)c1ccc2c(-c3ccccc3C(=O)O)c3ccc(=[N+](CC)CC)cc-3oc2c1.[Cl-]` [RhB, rhodamine B], for which the loading efficiency entry in data set [1] is given as “approximately 95%”. In data set [2], the “In vitro drug release” value is above 4 weeks. Moreover, in data set [2] (PBS pH 7.4, room temperature), the initial burst release result is given as “about 1%”.

Turning to `O=C(O)c1ccccc1O` [Salicylic acid], in data set [3] (setting [4]), the “In vitro drug release” value is 1 days.

For `CC(C)NCC(O)COc1cccc2ccccc12` (centres unmarked) [propranolol hydrochloride], the “In vitro drug release” value in data set [3] (setting [4]) is 20 days.

Regarding `Cn1c(=O)c2[nH]cnc2n(C)c1=O` [theophylline], the “In vitro drug release” value in data set [3] (Layer-by-layer coatings, Coat drug tablet) was above 0.33 days.

With Dextran, in data set [2], the “In vitro drug release” value amounted to 7 days.

“IGF-I: insulin like growth factor loaded in silk delivery systems”: the “In vitro drug release” value is given as above 7 weeks in data set [3] (setting [4]) and above 4 weeks in data set [3] (Porous sponge, Drug encapsulated).

On to “Tetramethylrhodamine conjugated bovine serum albumin [TMR-BSA]”, for which the loading efficiency result in data set [1] is recorded as “about 51%”. Besides, the “In vitro drug release” value in data set [2] is recorded as above 4 weeks. In addition, the initial burst release entry in data set [2] (PBS pH 7.4, room temperature) is “about 1%”.

With “tetramethylrhodamine conjugated dextran [TMR-dextran]”, in data set [1], the loading efficiency entry was “approximately 1.2%”. In addition, the “total loading released within 2 weeks” value in data set [2] (PBS pH 7.4, room temperature, within 2 weeks) was “more than 60%”.
